Assays:
ABCG2 [1] = molecular target: T1, ABCG2 (Homo sapiens, UniProt Q9UNQ0); experiment: [3H]-mitoxantrone accumulation in NCI-H460 and NCI-H460/TPT10 cells, restored by Ko143; type: cell-based; set-up: ABCG2-overexpressing NCI-H460/TPT10 cells
T1 sequence (Q9UNQ0 1-655): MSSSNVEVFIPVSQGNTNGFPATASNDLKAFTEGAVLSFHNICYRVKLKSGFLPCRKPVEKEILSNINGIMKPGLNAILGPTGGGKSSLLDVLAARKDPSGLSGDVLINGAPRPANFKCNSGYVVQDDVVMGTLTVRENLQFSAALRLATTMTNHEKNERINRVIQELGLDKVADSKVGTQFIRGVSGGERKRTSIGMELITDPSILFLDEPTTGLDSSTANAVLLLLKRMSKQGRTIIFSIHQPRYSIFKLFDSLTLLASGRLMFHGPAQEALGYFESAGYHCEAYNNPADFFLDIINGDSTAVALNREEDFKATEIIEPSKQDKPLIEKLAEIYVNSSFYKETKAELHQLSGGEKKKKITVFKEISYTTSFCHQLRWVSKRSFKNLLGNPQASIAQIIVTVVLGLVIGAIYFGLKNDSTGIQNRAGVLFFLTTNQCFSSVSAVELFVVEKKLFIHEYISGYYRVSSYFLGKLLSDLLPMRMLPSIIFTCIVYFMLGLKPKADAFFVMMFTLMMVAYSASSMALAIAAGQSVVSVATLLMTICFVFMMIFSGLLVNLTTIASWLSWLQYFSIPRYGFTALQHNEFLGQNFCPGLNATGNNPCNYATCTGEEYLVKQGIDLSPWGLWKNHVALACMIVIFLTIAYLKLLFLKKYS

ABCG2 [2] = molecular target: T1, ABCG2; experiment: ABCG2 ATPase stimulation in membrane vesicles; supported by HPLC accumulation in HEK293/ABCG2-WT cells; type: biochemical; set-up: ABCG2 membrane vesicles (PREDEASY ATPase Kit)

SMILES	[3H]-mitoxantrone accumulation in NCI-H460 and NCI-H460/TPT10 cells, restored by (ABCG2 [1])	EC50 (ABCG2 [2]) [µM]
O=C1c2c(O)ccc(O)c2C(=O)c2c(NCCNCCO)ccc(NCCNCCO)c21 [mitoxantrone]	suggesting a large portion of mitoxantrone was pumped out from the cells by ABCG2 transporter	
NS(=O)(=O)OC[C@H]1C[C@@H](Nc2ccnc3cc(-c4cccc(SC(F)(F)F)c4)nn23)[C@H](O)[C@@H]1O [MLN7243]		1.78
